# According to patent US12630785B2, “Liquid fabric care compositions comprising capsules” (The Procter & Gamble Company, priority 2020, dated 2026):
# Experiment: Capsule perfume leakage in liquid fabric enhancer (LFE), headspace SPME GC/MS
# Type: physicochemical
# Details: LFE Composition 1
# Procedure: The testing of capsule leakage in liquid compositions (e.g., liquid fabric enhancer/“LFE” compositions and/or heavy-duty liquid/“HDL” detergents) is performed as follows. […] The 1 gram aliquot in the 7 ml vial is then mixed on a stirring plate for 24 h at 500 rpm, thereby ensuring that the capsules are broken by the grinding action of the stir bar against the bottom of the 7 ml vial. Optical microscopy can be used to verify that no more intact capsules remain. In case such capsules are found, the step is to repeated for an additional 24 h, or until all or almost all capsules are broken. Then, the formulation containing broken capsules is introduced into GC vials in a similar manner as for step (a). This yields total oil samples. […] It is to be noted that the capsule sample and the total oil sample are not analyzed on the same day, as there is a need to prepare the total oil sample after the capsule sample has been removed from storage. […] The perfume oil composition formulated herein is representative of the perfume oil composition that is present in the slurry. Then the free oil formulation is introduced into GC vials in a similar manner as for step (a). This yields reference samples, which must be used when analyzing both the capsule sample and the total oil sample. […] Two headspace vials are prepared for each sample. The sealed headspace vials are then allowed to equilibrate. Samples reach equilibrium after 3 hours at room temperature, but can be left to sit longer without detriment or change to the results, up until 24 hours after sealing the headspace vial. After equilibrating, the samples are analyzed by GC/MS. […] The perfume composition is analyzed by fast GC/MS in full scan mode. Ion extraction of the specific mass for each component is obtained. The leakage is calculated as follows, separately for the capsule sample and total oil sample, where “Area” denotes the area under the chromatogram peak corresponding to the PRM of interest: Once calculated for all PRMs for both the total oil sample and the capsule sample, the corrected PRM leakage can be calculated using the following formula: Once the corrected PRM leakage has been calculated for all PRMs, the Average leakage can be found by taking the arithmetic mean of each corrected PRM leakage. […] The resulting products are stored for one week at 35° C. At the end of the storage period, samples of each product composition are analyzed for perfume leakage out of the capsule using headspace analysis. The data is reported as a percentage, determined by comparing the amount of the individual perfume raw materials found in the headspace to the amount originally provided to the capsules.
# [1] = PRM of Perfume 4 out of Comparative Example 9-1 capsules (per EP3078415A)
# [2] = PRM of Perfume 4 out of Comparative Example 9-2 capsules (per EP3078415A, additional TEOS)
# [3] = PRM of Perfume 4 out of Example 9-1 capsules (Sample E)
# [4] = PRM of Perfume 3 out of Capsule Sample D
# [5] = PRM of Perfume 2 out of Capsule Sample C
structure (smiles),measurement,setting,value
CCCCCCOC(=O)c1ccccc1O [Hexyl Salicylate],Leakage (as %) after 1 week at 35° C.,[1],34%
same,Leakage (as %) after 1 week at 35° C.,[2],28%
same,Leakage (as %) after 1 week at 35° C.,[3],3%
CCCCCC/C(C=O)=C\c1ccccc1 [Hexylcinnamyl aldehyde],Leakage (as %) after 1 week at 35° C.,[1],22%
same,Leakage (as %) after 1 week at 35° C.,[2],36%
same,Leakage (as %) after 1 week at 35° C.,[3],7%
CC1=CC(C)C(C=O)CC1 (stereo not drawn) [Ligustral-1],Leakage (as %) after 1 week at 35° C.,[4],8%
CC(C=O)Cc1ccc(C(C)(C)C)cc1 (stereo not drawn) [Lilial],Leakage (as %) after 1 week at 35° C.,[1],46%
same,Leakage (as %) after 1 week at 35° C.,[2],61%
same,Leakage (as %) after 1 week at 35° C.,[3],30%
CCCCCCCCCC(C)C=O (stereo not drawn) [Methyl nonyl acetaldehyde],Leakage (as %) after 1 week at 35° C.,[4],4%
CC(=O)OC(C)c1ccccc1 (stereo not drawn) [Methyl phenyl carbinyl acetate],Leakage (as %) after 1 week at 35° C.,[4],7%
CC(C)=CC1CC(C)CCO1 (stereo not drawn) [Rose Oxide],Leakage (as %) after 1 week at 35° C.,[4],8%
CCC=C(C)C(O)CCCCC (stereo not drawn) [Undecavertol],Leakage (as %) after 1 week at 35° C.,[4],11%
COC(=O)OC1CC/C=C\CCC1 (stereo not drawn) [[(4Z)-1-cyclooct-4-enyl] methyl carbonate],Leakage (as %) after 1 week at 35° C.,[5],5%
CC1=CCC(C(C)(C)O)CC1 (stereo not drawn) [alpha-Terpineol],Leakage (as %) after 1 week at 35° C.,[4],10%
CC(=O)/C=C/C1=C(C)CCCC1(C)C [beta ionone],Leakage (as %) after 1 week at 35° C.,[4],5%
"CCOC(=O)C1CCC(C(=O)OCC)CC1 (stereo not drawn) [diethyl 1,4-cyclohexane dicarboxylate]",Leakage (as %) after 1 week at 35° C.,[5],3%
